Tests used:
[1] = tested on: adjuvant-induced arthritis in rats; assay: Adjuvant-induced arthritis, paw swelling (immunotherapy mediated protection); type: in vivo, rat; details: for inhibition of adjuvant-induced arthritis, left and right paw: Example 14, folate-FITC 3000 nmoles/kg per day, days 1,2,3, osmotic pump, MTX 0.15 mg ip days 1,8,15
Procedure: Arthritis was induced in 150-200 g female Lewis rats (Charles River Laboratories, Inc., Wilmington, Mass.), n=4/dose group. Briefly, 0.5 mg of heat-killed Mycoplasma butericum, suspended in mineral oil (5 mg/ml), was injected on day 0 into the left hind foot of rats following anesthesia with ketamine and xylazine. Disease was allowed to progress for 21 days, and animals were weighed on a daily basis to ensure the status of their health. […] Control rats were also maintained on a folate-deficient diet but not induced to develop arthritis.
The efficacy of a folate-FITC conjugate (folate-fluorescein isothiocyanate conjugate) against adjuvant-induced arthritis in rats was investigated. Each rat used in the experiment was immunized at the base of the tail with FITC-KLH (150 μg) to induce antibodies against FITC on days −38 and −10 before administration of Mycoplasma butericum (adjuvant) to induce arthritis. The immunization of FITC-KLH was done in combination with an adjuvant (i.e., such as TITERMAX® GOLD (150 μg), Alum (150 μg), or GPI-100 (150 μg) which are all adjuvants to induce antibodies against FITC as opposed to the adjuvant used to induce arthritis). The immunized animals were then injected on day 0 in the left foot pad with 0.5 mg of heat-killed Mycoplasma butyricum (adjuvant) to initiate development of arthritis. Then on days 1, 2, 3, 9, 11, and 14, post-adjuvant (Mycoplasma butyricum) injection, the rats were injected intraperitoneally with either saline (control rats) or 2000 nmoles/kg of folate-FITC (FF). Calipers were used to measure left and right foot dimensions daily.
Methotrexate (MTX) was administered at a dose of 0.15 mg by intraperitoneal injection one time per day on days 1, 8, and 15 after adjuvant administration. MTX was used in place of folate-FITC for animals treated with MTX.
Other animals were treated with 0.75 mg of MTX (FF+mid) or 1.5 mg of MTX (FF+high).

activated macrophages = assay: Biodistribution analysis (gamma counting of harvested tissues) in arthritic rats; type: in vivo, rat; details: FF 2000 nmoles/kg days 1,2,3,9,11,14 or MTX 0.15 mg days 1,8,15
Procedure: Arthritis was induced in 150-200 g female Lewis rats (Charles River Laboratories, Inc., Wilmington, Mass.), n=4/dose group. Briefly, 0.5 mg of heat-killed Mycoplasma butericum, suspended in mineral oil (5 mg/ml), was injected on day 0 into the left hind foot of rats following anesthesia with ketamine and xylazine. Disease was allowed to progress for 21 days, and animals were weighed on a daily basis to ensure the status of their health. […] All rats were maintained on a folate-deficient diet (DYETS, Inc., Bethlehem, Pa.) for 3 weeks prior to administration of folate-FITC in order to lower serum folate levels to physiologically relevant concentrations. Control rats were also maintained on a folate-deficient diet but not induced to develop arthritis.
Seventeen days following induction of the arthritis and three days prior to administration of the imaging agent (EC20), rats destined for macrophage depletion received a single intraperitoneal injection of clodronate liposomes containing 20 mg clodronate. […]
For biodistribution analysis, rats were euthanized by intraperitoneal injection of nebutal or pentobarbitol sodium. Liver, spleen, heart, lungs, intestine, and kidneys were then harvested and radiation in each tissue was determined by counting in a gamma counter (Packard BioScience Co., Meridian, Conn.).

[2] = tested on: tissue infiltrating neutrophils
Text: (§1) Using an antibody specific for granulocytes, we also examined whether tissue infiltrating neutrophils might take up folate conjugates.

[3] = tested on: Mac-1+ peripheral blood cells
Text: as §1

liver macrophages = assay: Flow cytometry of folate-FITC binding to disaggregated liver cells (ED2 macrophage marker); type: cell-based, rat
Text: The protocols described in Examples 2, 4, 6 and 7 were used. To further confirm that the elevated uptake of EC20 in livers of arthritic rats is due to a macrophage population, livers were resected from collagenase-perfused rats and their disaggregated cells examined for folate conjugate uptake, using folate-FITC as a fluorescent marker for FR expression.

[4] = Example 8, 2000 nmoles/kg ip days 1,2,3,9,11,14, FITC-immunized rats

Question: With `CN(Cc1cnc2nc(N)nc(N)c2n1)c1ccc(C(=O)N[C@@H](CCC(=O)O)C(=O)O)cc1` [MTX, Methotrexate, reference compound] as the compound, how does the “inhibition of adjuvant-induced arthritis, left and right paw” value [1] read?
Answer: The value was “inhibits adjuvant-induced arthritis as well as MTX”.

Question: And the “effect of treatment on EC20 organ uptake” value (activated macrophages)?
Answer: The value was “prevent EC20 uptake in all organs examined except the kidney”.

Question: `Nc1nc2ncc(CNc3ccc(C(=O)NC(CCC(=O)NCCNC(=S)Nc4ccc(C(=O)O)c(-c5c6ccc(=O)cc-6oc6cc(O)ccc56)c4)C(=O)O)cc3)nc2c(=O)[nH]1` (stereo not shown) [folate-FITC, folate-fluorescein isothiocyanate] was tested. Which “binding to liver neutrophils” value [2] did it give?
Answer: Its value is “no binding capacity”.

Question: What about the “binding to Mac-1+ peripheral blood cells” value [3] of the same compound?
Answer: The value was “no binding affinity”.

Question: And the “binding in presence of excess free folic acid” value (liver macrophages; 1 mM folic acid)?
Answer: The value was “suppressed”.

Question: What about the “liver macrophages that bound folate-FITC” value (liver macrophages; arthritic rats, 1 μM folate-FITC) of the same compound?
Answer: The value was 70%.

Question: What about the “FITC intensity of arthritic macrophages” value (liver macrophages; vs macrophages from healthy livers) of the same compound?
Answer: Its value is “higher than that of macrophages from healthy livers”.

Question: And the “activated macrophages invading feet after about 10 days (foot dimensions)” value [1, 4]?
Answer: The value was “eliminated or reduced”.

Question: And the “early (neutrophil) phase of paw swelling of adjuvant-injected feet” value [1, 4]?
Answer: Its value is “no impact on this phase of paw swelling”.

Question: And the “inhibition of adjuvant-induced arthritis, left and right paw” value [1]?
Answer: The value was “inhibits adjuvant-induced arthritis as well as MTX”.

Question: What about the “prolonged treatment vs 3 initial doses” value ([1]; Example 15, 3000 nmoles/kg, days 1,2,3,9,11,14 vs days 1,2,3) of the same compound?
Answer: The value was “prolonged treatment with FF is more effective than 3 initial doses”.

Question: What about the “inhibition of adjuvant-induced arthritis, right (uninjected) paw volume” value ([1]; Example 15, FF 3000, 600 and 120 nmoles/kg) of the same compound?
Answer: The value was “inhibits adjuvant-induced arthritis in the right paw”.

Question: What about the “effect of treatment on EC20 organ uptake” value (activated macrophages) of the same compound?
Answer: Its value is “prevent EC20 uptake in all organs examined except the kidney”.

— patent US7632505B2, “Treatment of macrophage mediated disease” (Purdue Research Foundation, priority 2001, dated 2009)
